Tests used:
[1] = tested on: Sprague-Dawley rats; experiment: In vivo sedative/hypnotic testing, IV bolus, rats; set-up: species or system rat; details: rats
Experimental: Animals were housed in a dedicated room at the vivarium of VivoPath Inc., located at Redstone Center, 55 Union Street, Worcester, Mass. Housing and care was as specified in the USDA Animal Welfare Act (9 CFR, Parts 1, 2, and 3) and as described in the Guide for the Care and Use of Laboratory Animals from the National Research Council. Environmental conditions of housing rooms are set at the following ranges: temperature: 70±7° F. (22±4° C.), humidity: 50±20%, light cycle: 12-hour light/12-hour dark cycle—lights on at 7 am and off at 7 pm., air changes: ten or more air changes per hour with 100% fresh air. The animals' body weights were measured prior to the first dose on each experimental day.
Adult male Sprague-Dawley rats (225-300 g) were purchased from Harlan (South Easton, Mass.).
Drugs were prepared in either dimethylsulfoxide/saline or saline vehicle or hydroxypropyl-β-cyclodextrin (20% in water, pH 7.0) solution and were administered as an intravenous bolus injection. Animals received 1-4 doses of drug(s) during an experimental day, either ascending doses or different drugs. Doses were administered at intervals equal to the longer of 1 h or 10-times the duration of apparent sedative/hypnotic effects from the previous dose. The sedative/hypnotic properties of the drugs were evaluated by observation of the rats, ranging from mild excitation, mild sedation apparent due to reduced activity, and moderate sedation to hypnosis reflected by loss of righting reflex (LORR, the ability to place rear and hind legs under the body, as well as attenuation/loss of nociceptive reflexes).

[2] = tested on: rats; experiment: Anesthesia (LORR) in rats by IV bolus and continuous infusion; format: in vivo, rat
Experimental: Rats were monitored for anesthesia as assessed by loss of righting reflex (LORR) and the subsequent time to recovery from LORR. Bolus doses of 1.0 mg/kg and greater induced dose-dependent anesthesia. The minimum effective bolus anesthetic dose in rats was approximately 1 mg/kg based on LORR observations. Time to recovery from LORR was dose-dependent.
Cyclopropyl-MOC-metomidate anesthesia in rats by continuous infusion without a bolus induction dose was examined in this study. An infusion of […] induced anesthesia after approximately 3 minutes as measured by LORR. Recovery of righting reflex took approximately 4 minutes following infusion discontinuation whether the infusion was conducted for 5 or 120 minutes.
Cyclopropyl-MOC-metomidate continuous infusion studies were conducted to determine the minimum effective infusion dose required to induce anesthesia. […] When stable anesthesia was observed after 30 minutes of infusion, the infusion rate was reduced to 0.8 mg/kg/min and then to 0.6 mg/kg/min and 0.4 mg/kg/min at 30-minute intervals. Anesthesia and LORR was maintained in all rats at 0.6 mg/kg/min. […] In one rat, the infusion at 0.4 mg/kg/min was discontinued after 7 minutes due to inadequate the anesthesia. The other two rats received the full 30-minute infusion at […] with no further change. Rats recovered from LORR and resumed normal behavior within 2-6 minutes of stopping the infusion. Based on these observations, the minimum effective infusion dose rate required to maintain anesthesia was determined to be approximately 0.5 mg/kg/min. An independent assessment of “minimal immobilizing infusion rate” of cyclopropyl-MOC-metomidate in rats yielded a value of 0.89±0.18 mg/kg/min.

[3] = tested on: adrenal cortisol production
Experimental: Dexamethasone (0.01 mg/kg) was administered two hours before the first administration of ACTH and re-administered every 2 hours to maintain suppression. Dexamethasone pretreatment suppresses the hypothalamo-hypophyseal axis to prevent endogenous ACTH release and subsequent adrenocortical steroid secretion. […] Synthetic ACTH (Synacthen, 250 μg) was then administered at times after test substance administration to evaluate the effects of the test substance on the release of the adrenal steroid, cortisol.
All study methods described for Study 1 were repeated, except the ACTH administration at the end of infusion was omitted.

[4] = in vivo; details: rat

## COC(=O)C1(OC(=O)c2cncn2[C@H](C)c2ccccc2)CC1 [Cyclopropyl- methoxycarbonyl metomidate, cyclopropyl-methoxycarbonyl metomidate]
[1]
  slope of duration of LORR vs logarithm of dose: approximately 10
[2]
  minimum effective infusion dose rate to maintain anesthesia: approximately 0.5 mg/kg/min
[2]; 4 mg/kg bolus then 1 to 0.4 mg/kg/min step-down infusion
  recovery from LORR and normal behavior after stopping the infusion: 2 to 6 min
[2]; IV bolus, LORR
  minimum effective bolus anesthetic dose: approximately 1 mg/kg
[2]; bolus dose of 4 mg/kg
  duration of anesthesia and LORR: 3 to 8 min
[2]; independent assessment
  minimal immobilizing infusion rate: 0.89 ± 0.18 mg/kg/min
[2]; infusion for 5 or 120 minutes
  recovery of righting reflex after infusion discontinuation: approximately 4 minutes
[2]; infusion of 4 mg/kg without bolus
  time to induction of anesthesia (LORR): approximately 3 minutes
[3]; Study 1, dogs, after 120-minute infusion
  ACTH-induced plasma cortisol response: cortisol response to the first ACTH stimulus was inhibited, but the response to the second and third ACTH stimuli at 90 and 180 minute post-infusion were robust
[3]; dogs
  return of normal adrenal responsiveness after cessation of infusion: 1.5 to 3 h
[4]; both, iv
  concentration at 24 h: < 0.1 ng/mL
  half-life: ~10 min
[4]
  half-life: ~20 min
